Results from the supplement of paper PMC12823440, “Inhibitors supercharge kinase turnover through native proteolytic circuits” (Nature, 2025).
± gives the uncertainty stated by the source.

Columns and labels:
Details in all cases: lysate: 5-cell-line mix (COLO-205, K562, SK-N-BE(2), MV-4-11, OVCAR-8)
UNC119 [1] = target: UNC119 (UniProt Q13432); test: apparent Kd (Kinobeads competition)
BCR [2] = target: T1, BCR (UniProt P11274); test: apparent Kd (Kinobeads competition)
T1 sequence (whole entry): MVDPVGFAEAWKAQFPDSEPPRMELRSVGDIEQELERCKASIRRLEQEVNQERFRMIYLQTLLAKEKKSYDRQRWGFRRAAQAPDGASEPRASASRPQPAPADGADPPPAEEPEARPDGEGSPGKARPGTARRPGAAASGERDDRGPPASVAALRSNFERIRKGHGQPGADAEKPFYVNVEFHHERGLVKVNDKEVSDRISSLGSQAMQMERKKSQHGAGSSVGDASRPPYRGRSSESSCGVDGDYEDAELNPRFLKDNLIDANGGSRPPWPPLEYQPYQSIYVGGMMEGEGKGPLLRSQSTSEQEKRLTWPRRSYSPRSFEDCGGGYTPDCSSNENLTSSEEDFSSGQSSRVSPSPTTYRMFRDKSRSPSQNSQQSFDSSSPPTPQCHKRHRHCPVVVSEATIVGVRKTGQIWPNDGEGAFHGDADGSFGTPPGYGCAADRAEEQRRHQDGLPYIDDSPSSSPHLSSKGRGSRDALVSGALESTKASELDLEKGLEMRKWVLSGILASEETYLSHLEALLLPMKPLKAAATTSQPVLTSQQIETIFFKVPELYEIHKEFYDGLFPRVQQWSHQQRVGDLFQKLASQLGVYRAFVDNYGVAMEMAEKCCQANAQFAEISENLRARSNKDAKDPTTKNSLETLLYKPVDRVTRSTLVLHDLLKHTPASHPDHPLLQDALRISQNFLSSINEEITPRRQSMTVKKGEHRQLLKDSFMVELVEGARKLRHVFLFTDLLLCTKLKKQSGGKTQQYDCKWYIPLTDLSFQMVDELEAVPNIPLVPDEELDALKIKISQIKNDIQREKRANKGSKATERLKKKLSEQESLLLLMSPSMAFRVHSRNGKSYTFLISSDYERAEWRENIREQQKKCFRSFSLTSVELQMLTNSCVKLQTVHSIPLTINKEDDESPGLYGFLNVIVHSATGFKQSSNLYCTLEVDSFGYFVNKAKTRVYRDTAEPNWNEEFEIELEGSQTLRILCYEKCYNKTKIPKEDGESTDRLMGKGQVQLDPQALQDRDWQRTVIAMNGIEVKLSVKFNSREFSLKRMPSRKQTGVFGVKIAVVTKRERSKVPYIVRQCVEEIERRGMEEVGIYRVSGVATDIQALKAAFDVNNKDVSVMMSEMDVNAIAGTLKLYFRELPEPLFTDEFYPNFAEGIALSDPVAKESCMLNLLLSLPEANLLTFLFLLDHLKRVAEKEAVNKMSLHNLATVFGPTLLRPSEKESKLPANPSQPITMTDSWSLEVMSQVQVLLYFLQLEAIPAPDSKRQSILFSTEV

FECH = target: T2, FECH (UniProt P22830); test: apparent Kd (Kinobeads competition)
T2 sequence (whole entry): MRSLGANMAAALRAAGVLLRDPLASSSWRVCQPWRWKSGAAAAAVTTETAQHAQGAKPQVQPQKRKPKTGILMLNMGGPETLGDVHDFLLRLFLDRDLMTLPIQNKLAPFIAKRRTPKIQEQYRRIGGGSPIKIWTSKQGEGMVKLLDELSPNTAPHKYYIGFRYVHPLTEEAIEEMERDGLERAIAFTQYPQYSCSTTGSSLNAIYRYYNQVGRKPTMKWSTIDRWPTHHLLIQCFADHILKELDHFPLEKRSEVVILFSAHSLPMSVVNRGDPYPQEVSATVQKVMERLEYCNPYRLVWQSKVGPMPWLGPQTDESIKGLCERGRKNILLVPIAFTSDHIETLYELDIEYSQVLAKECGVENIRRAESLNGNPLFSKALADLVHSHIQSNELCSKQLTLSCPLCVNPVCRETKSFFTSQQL

PAG1 [3] = target: T3, PAG1 (UniProt Q9NWQ8); test: apparent Kd (Kinobeads competition)
T3 sequence (whole entry): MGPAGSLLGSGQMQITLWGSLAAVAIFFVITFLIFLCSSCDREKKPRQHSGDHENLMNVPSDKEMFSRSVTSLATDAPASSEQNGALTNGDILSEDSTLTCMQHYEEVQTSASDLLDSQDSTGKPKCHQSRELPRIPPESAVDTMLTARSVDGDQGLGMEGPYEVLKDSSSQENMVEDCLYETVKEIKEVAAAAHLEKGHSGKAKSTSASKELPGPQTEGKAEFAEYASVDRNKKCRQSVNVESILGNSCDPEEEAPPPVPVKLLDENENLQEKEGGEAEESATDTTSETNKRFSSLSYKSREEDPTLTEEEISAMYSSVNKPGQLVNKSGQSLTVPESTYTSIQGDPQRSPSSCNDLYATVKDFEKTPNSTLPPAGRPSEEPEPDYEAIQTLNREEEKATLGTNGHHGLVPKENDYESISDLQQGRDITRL

ABL2 = ABL2 (UniProt P42684); test: EC50 for competition of Kinobead binding
Chain of ABL2 (P42684 whole entry): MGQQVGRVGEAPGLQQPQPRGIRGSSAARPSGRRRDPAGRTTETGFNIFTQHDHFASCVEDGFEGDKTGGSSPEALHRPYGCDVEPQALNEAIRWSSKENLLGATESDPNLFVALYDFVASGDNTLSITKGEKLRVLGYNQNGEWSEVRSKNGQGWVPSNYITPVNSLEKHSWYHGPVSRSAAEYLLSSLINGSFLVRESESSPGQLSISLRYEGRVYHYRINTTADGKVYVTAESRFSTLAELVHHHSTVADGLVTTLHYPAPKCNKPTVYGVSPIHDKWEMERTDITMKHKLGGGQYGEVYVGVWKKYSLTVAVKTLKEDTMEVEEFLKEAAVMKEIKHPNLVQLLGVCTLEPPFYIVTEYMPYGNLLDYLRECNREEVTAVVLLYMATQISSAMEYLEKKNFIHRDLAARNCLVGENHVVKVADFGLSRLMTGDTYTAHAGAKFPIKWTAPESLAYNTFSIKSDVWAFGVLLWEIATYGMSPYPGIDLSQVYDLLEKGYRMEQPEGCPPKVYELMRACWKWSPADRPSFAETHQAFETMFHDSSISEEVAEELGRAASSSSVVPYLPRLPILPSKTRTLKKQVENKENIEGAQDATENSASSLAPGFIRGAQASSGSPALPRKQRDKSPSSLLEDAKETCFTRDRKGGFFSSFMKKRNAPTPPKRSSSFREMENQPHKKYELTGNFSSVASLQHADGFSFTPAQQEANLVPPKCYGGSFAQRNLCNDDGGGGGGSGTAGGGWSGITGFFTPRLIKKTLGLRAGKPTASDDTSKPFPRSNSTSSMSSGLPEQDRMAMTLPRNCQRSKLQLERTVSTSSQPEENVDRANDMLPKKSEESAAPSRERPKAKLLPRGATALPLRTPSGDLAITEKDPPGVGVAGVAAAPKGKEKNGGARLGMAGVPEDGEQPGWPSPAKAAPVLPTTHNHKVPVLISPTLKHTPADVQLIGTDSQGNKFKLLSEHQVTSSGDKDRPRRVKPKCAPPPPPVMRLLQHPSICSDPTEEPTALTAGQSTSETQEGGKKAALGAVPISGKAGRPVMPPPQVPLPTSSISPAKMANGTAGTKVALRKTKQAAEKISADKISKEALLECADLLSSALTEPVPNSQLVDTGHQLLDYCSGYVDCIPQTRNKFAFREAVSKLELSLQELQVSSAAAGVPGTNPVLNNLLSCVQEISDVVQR

UNC119 [4] = target: UNC119 (UniProt Q13432); test: EC50 for competition of Kinobead binding
ABL1 = ABL1 (UniProt P00519); test: EC50 for competition of Kinobead binding
Chain of ABL1 (P00519 whole entry): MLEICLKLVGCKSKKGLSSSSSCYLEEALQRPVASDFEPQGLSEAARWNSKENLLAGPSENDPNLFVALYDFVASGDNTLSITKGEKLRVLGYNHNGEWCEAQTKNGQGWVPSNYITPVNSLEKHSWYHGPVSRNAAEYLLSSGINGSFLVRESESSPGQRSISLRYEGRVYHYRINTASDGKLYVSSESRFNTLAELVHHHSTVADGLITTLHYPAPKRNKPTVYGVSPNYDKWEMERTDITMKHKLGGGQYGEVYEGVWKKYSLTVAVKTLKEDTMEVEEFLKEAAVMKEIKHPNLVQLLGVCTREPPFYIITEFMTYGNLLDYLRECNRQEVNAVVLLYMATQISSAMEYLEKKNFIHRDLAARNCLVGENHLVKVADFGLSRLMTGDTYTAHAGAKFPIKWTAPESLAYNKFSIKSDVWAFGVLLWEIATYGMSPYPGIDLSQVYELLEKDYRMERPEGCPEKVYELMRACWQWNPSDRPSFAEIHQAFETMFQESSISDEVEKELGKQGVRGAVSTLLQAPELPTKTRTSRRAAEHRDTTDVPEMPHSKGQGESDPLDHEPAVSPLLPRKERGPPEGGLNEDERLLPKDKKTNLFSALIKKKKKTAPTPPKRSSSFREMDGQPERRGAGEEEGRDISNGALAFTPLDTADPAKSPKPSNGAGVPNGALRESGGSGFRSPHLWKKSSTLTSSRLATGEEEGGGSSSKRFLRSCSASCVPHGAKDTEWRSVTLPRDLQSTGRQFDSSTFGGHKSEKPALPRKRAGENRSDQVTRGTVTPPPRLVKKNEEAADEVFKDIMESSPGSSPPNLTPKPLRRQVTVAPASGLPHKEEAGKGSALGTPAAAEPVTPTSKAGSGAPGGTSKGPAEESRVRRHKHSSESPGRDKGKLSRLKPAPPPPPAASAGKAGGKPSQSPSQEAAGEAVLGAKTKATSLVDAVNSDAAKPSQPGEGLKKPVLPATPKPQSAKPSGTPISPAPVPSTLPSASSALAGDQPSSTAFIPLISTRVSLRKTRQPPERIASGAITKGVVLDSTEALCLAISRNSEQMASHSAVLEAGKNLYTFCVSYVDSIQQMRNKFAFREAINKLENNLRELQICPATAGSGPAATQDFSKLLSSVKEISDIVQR

BCR [5] = target: T1, BCR; test: EC50 for competition of Kinobead binding
PAG1 [6] = target: T3, PAG1; test: EC50 for competition of Kinobead binding
BTK = BTK (UniProt Q06187); test: EC50 for competition of Kinobead binding
Chain of BTK (Q06187 whole entry): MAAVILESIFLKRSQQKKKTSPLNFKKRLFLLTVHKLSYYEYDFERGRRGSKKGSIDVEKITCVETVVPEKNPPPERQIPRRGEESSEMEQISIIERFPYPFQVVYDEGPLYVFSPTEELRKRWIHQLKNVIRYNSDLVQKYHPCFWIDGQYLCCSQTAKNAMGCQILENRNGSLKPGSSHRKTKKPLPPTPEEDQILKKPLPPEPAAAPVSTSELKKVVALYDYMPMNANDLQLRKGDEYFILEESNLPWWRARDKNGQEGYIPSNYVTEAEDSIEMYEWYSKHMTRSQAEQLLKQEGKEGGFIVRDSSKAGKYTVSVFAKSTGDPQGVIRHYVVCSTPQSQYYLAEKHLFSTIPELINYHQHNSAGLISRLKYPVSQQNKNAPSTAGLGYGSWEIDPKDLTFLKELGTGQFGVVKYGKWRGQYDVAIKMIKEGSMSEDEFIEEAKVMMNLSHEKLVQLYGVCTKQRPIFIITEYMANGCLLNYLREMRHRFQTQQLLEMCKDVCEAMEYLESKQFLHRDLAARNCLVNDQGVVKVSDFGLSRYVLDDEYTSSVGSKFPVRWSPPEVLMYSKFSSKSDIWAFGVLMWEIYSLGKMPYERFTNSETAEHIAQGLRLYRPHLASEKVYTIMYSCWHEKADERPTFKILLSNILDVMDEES

MAP4K3 = target: T4, MAP4K3 (UniProt Q8IVH8); test: EC50 for competition of Kinobead binding
T4 sequence (whole entry): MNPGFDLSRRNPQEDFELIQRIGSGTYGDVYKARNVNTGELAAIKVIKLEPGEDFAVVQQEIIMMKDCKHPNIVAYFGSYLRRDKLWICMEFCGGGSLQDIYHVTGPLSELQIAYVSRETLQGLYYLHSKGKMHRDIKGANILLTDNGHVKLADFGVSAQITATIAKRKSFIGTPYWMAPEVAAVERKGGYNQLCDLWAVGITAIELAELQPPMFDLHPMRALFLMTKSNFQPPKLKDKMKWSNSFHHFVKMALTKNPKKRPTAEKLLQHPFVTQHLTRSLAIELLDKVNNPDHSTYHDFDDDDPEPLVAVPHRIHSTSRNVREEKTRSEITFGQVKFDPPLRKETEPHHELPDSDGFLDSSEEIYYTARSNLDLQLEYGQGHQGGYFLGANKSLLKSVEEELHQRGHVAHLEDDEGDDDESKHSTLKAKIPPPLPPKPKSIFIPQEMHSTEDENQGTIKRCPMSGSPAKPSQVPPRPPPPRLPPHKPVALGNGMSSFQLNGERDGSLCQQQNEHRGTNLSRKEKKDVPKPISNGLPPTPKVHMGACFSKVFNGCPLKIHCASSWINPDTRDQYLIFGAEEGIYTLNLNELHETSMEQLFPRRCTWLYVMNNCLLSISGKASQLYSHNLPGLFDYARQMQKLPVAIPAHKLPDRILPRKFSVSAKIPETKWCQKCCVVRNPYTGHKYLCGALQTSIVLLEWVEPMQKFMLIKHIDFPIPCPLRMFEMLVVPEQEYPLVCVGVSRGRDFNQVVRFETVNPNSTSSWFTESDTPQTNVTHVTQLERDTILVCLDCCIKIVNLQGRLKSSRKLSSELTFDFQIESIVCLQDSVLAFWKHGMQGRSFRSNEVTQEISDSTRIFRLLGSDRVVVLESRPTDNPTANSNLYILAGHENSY

FRK = FRK (UniProt P42685); test: EC50 for competition of Kinobead binding
Chain of FRK (P42685 whole entry): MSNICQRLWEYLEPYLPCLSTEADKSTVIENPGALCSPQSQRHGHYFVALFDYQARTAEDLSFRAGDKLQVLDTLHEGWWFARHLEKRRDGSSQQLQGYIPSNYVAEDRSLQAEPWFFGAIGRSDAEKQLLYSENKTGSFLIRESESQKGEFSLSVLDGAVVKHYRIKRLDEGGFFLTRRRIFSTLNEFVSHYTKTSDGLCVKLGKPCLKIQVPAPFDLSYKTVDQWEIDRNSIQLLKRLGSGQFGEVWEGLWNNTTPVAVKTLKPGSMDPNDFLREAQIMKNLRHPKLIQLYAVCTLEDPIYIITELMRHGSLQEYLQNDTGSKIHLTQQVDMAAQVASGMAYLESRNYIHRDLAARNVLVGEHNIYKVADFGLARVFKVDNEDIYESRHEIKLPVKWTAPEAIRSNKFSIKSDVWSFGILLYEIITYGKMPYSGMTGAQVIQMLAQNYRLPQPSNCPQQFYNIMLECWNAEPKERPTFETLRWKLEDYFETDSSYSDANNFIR

COc1ccc2c(C(=O)Nc3ccc(NC(=O)c4nn(C5CCN(C(=O)CC(C)(C)C#N)CC5)c5ccc(F)cc45)cc3Cl)cnn2c1 [Src Inhibitor 3]
Kd (UNC119 [1]): 24.1 nM
Kd (BCR [2]): 127 nM
Kd (FECH): 6350 nM
Kd (PAG1 [3]): 48.4 nM
EC50 (ABL2): 332 ± 170 nM
EC50 (UNC119 [4]): 904 ± 250 nM
EC50 (ABL1): 1530 ± 2600 nM
EC50 (BCR [5]): 790 ± 430 nM
EC50 (PAG1 [6]): 70.9 ± 11 nM
EC50 (BTK): 4250 ± 2700 nM
EC50 (MAP4K3): 14300 ± 28000 nM
EC50 (FRK): 17600 ± 34000 nM
